From ChEMBL document CHEMBL2413047, “Identification of GNE-293, a potent and selective PI3Kδ inhibitor: navigating in vitro genotoxicity while improving potency and selectivity” (Bioorg Med Chem Lett, 2013)
≈ marks a conversion by molar mass, not a printed value. Each block holds one compound with its values, some of them ahead of it.

Assays:
[1] = Clearance in rat at 1 mg/kg, iv; type: ADME, organism-based; set-up: dose 1 mg/kg, route intravenous; details: in vivo
[2] = target: T1, Phosphatidylinositol 4,5-bisphosphate 3-kinase catalytic subunit delta isoform (Homo sapiens, UniProt O00329); experiment: Inhibition of PI3Kdelta in human whole blood assessed as expression of CD69 in B cell preincubated for 1 hr by flow cytometry; type: tissue-based
T1 sequence (O00329 whole entry): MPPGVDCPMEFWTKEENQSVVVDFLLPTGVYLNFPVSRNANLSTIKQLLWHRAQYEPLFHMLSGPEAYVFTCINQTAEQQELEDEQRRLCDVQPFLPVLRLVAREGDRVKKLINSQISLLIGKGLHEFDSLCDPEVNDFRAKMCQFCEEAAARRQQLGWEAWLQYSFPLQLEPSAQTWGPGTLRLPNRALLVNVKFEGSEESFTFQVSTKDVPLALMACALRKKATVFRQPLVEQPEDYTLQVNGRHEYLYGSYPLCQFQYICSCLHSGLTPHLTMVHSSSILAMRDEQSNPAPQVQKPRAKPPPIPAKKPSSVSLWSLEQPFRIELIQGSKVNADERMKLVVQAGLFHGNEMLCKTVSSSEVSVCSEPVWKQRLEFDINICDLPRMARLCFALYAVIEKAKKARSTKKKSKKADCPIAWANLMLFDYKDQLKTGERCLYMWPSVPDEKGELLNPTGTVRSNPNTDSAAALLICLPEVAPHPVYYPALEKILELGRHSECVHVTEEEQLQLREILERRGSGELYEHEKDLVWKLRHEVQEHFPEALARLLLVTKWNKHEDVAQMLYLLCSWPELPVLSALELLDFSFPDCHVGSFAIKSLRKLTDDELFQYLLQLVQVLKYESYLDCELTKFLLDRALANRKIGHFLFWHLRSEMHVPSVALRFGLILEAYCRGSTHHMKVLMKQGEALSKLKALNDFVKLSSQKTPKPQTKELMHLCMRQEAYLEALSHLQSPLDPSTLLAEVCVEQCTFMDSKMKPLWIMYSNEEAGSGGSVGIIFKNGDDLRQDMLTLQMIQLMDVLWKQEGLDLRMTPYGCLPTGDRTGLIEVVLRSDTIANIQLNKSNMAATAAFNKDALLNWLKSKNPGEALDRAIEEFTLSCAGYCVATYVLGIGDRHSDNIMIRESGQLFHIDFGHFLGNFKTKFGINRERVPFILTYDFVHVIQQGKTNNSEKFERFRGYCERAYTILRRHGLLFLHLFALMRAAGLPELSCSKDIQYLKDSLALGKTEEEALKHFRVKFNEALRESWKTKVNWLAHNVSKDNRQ

[3] = target: T1, Phosphatidylinositol 4,5-bisphosphate 3-kinase catalytic subunit delta isoform; experiment: Inhibition of PI3Kdelta (unknown origin) assessed as formation of PIP3 by competitive fluorescence polarization assay; details: read-out: Ki(app)
[4] = Genotoxicity in human lymphocytes assessed as chromosome aberration; type: toxicity, cell-based; details: lymphocyte
[5] = system: CHO-K1; experiment: Genotoxicity in CHOK1 cells by micronucleus assay; type: toxicity, cell-based, Cricetulus griseus; details: chinese hamster
[6] = target: Phosphatidylinositol 4-phosphate 3-kinase C2 domain-containing subunit beta (Homo sapiens) (UniProt O00750); experiment: Inhibition of PI3KC2b (unknown origin) at 10 uM
[7] = target: Maternal embryonic leucine zipper kinase (Homo sapiens) (UniProt Q14680); experiment: Inhibition of MELK (unknown origin) at 10 uM
[8] = system: Serine/threonine-protein kinase B-raf (Homo sapiens), P15056 [V600E]; experiment: Inhibition of B-Raf V599E mutant (unknown origin) at 10 uM
[9] = Kinetic solubility of the compound; type: physicochemical; details: read-out: Kinetic_solubility
[10] = target: Phosphatidylinositol 4,5-bisphosphate 3-kinase catalytic subunit alpha isoform (Homo sapiens, UniProt P42336); experiment: Inhibition of PI3Kalpha (unknown origin) assessed as formation of PIP3 by competitive fluorescence polarization assay; details: read-out: Ki(app)
[11] = Genotoxicity in human lymphocytes assessed as chromosome aberration at […] relative to control; type: toxicity, cell-based; details: lymphocyte
[12] = AUC in dog at 10 mg/kg, po; type: ADME, organism-based, Canis lupus familiaris; set-up: dose 10 mg/kg, route oral; details: plasma
[13] = AUC in rat at 5 mg/kg, po; type: ADME, organism-based; set-up: dose 5 mg/kg, route oral; details: plasma
[14] = AUC in dog at 2 mg/kg, po; type: ADME, organism-based, Canis lupus familiaris; set-up: dose 2 mg/kg, route oral; details: plasma
[15] = Cmax in dog at 2 mg/kg, po; type: ADME, organism-based, Canis lupus familiaris; set-up: dose 2 mg/kg, route oral; details: in vivo
[16] = Cmax in dog at 10 mg/kg, po; type: ADME, organism-based, Canis lupus familiaris; set-up: dose 10 mg/kg, route oral; details: in vivo
[17] = Oral bioavailability in dog at 10 mg/kg; type: ADME, organism-based, Canis lupus familiaris; details: in vivo
[18] = Cmax in rat at 5 mg/kg, po; type: ADME, organism-based; set-up: dose 5 mg/kg, route oral; details: in vivo
[19] = Oral bioavailability in rat at 5 mg/kg; type: ADME, organism-based; details: in vivo
[20] = Oral bioavailability in dog at 2 mg/kg; type: ADME, organism-based, Canis lupus familiaris; details: in vivo
[21] = Half life in rat at 1 mg/kg, iv; type: ADME, organism-based; set-up: dose 1 mg/kg, route intravenous; details: in vivo
[22] = Half life in dog at 1 mg/kg, iv; type: ADME, organism-based, Canis lupus familiaris; set-up: dose 1 mg/kg, route intravenous; details: in vivo
[23] = Volume of distribution at steady state in dog at 1 mg/kg, iv; type: ADME, organism-based, Canis lupus familiaris; set-up: dose 1 mg/kg, route intravenous; details: in vivo, read-out: Vdss
[24] = Volume of distribution at steady state in rat at 1 mg/kg, iv; type: ADME, organism-based; set-up: dose 1 mg/kg, route intravenous; details: in vivo, read-out: Vdss
[25] = Clearance in dog at 1 mg/kg, iv; type: ADME, organism-based, Canis lupus familiaris; set-up: dose 1 mg/kg, route intravenous; details: in vivo
[26] = Plasma protein binding in dog; type: ADME, cell-free, Canis lupus familiaris; details: read-out: PPB (converted)
[27] = Plasma protein binding in rat; type: ADME, cell-free; details: read-out: PPB (converted)
[28] = target: Phosphatidylinositol 4-kinase beta (Homo sapiens) (UniProt Q9UBF8); experiment: Inhibition of PI4Kb (unknown origin) at 1 uM
[29] = target: Serine/threonine-protein kinase B-raf (Homo sapiens) (UniProt P15056); experiment: Inhibition of B-Raf (unknown origin) at 1 uM
[30] = Genotoxicity in human lymphocytes assessed as mitotic index at […] (reference value: 11.1); type: toxicity, cell-based; details: lymphocyte

Sequence of Phosphatidylinositol 4,5-bisphosphate 3-kinase catalytic subunit alpha isoform (P42336 whole entry, canonical isoform): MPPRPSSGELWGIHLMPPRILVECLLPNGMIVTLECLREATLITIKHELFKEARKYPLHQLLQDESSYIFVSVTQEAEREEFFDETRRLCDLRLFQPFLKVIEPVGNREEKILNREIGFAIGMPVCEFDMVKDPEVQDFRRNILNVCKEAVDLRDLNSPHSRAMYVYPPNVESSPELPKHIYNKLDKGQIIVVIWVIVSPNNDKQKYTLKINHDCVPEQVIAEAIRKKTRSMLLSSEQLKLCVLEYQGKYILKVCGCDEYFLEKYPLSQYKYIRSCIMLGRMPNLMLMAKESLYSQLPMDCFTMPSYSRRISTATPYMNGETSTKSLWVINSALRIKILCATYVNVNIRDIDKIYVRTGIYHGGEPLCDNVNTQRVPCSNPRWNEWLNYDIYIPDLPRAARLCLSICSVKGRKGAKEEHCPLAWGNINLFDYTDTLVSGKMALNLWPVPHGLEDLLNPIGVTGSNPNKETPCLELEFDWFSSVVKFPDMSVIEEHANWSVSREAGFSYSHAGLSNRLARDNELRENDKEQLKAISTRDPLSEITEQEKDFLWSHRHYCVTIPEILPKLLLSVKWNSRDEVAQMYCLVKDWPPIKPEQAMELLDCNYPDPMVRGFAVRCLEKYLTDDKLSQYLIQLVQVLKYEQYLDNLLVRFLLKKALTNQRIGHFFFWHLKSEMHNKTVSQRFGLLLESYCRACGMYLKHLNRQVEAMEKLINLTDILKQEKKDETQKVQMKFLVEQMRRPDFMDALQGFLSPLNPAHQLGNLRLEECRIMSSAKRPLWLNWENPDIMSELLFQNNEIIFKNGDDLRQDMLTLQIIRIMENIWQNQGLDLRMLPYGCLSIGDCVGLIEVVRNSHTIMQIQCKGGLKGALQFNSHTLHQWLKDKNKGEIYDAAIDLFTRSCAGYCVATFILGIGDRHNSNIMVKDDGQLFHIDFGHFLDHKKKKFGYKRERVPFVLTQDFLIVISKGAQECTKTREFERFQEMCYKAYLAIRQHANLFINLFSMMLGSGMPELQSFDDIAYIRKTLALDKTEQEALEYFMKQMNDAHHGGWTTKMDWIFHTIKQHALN
Sequence of Serine/threonine-protein kinase B-raf (Homo sapiens), P15056 [V600E] (P15056 whole entry V600E): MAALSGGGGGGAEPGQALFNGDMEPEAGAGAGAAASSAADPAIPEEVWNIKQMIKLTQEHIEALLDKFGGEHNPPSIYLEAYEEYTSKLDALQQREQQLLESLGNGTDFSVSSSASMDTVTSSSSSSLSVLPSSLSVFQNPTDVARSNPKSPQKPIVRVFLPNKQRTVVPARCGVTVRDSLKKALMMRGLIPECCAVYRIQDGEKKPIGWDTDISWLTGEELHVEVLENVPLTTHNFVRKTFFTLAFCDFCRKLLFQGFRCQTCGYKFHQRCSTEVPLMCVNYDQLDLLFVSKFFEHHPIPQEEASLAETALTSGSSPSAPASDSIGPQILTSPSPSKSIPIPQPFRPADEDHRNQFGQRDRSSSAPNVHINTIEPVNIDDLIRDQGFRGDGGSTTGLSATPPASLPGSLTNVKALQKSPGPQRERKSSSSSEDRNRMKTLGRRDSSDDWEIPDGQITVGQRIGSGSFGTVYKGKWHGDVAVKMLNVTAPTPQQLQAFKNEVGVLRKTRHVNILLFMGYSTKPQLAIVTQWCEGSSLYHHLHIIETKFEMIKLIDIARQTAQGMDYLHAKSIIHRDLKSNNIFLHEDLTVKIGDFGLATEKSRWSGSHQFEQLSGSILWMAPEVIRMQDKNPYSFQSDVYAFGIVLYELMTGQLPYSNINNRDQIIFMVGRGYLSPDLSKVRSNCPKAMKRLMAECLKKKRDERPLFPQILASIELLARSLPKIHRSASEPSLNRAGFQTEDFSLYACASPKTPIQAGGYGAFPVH
Sequence of Serine/threonine-protein kinase B-raf (Homo sapiens) (P15056 whole entry): as the sequence (P15056 whole entry V600E) above, with E600V counted along it
Sequence of Phosphatidylinositol 4-phosphate 3-kinase C2 domain-containing subunit beta (Homo sapiens) (O00750 whole entry, the tested form may be a part): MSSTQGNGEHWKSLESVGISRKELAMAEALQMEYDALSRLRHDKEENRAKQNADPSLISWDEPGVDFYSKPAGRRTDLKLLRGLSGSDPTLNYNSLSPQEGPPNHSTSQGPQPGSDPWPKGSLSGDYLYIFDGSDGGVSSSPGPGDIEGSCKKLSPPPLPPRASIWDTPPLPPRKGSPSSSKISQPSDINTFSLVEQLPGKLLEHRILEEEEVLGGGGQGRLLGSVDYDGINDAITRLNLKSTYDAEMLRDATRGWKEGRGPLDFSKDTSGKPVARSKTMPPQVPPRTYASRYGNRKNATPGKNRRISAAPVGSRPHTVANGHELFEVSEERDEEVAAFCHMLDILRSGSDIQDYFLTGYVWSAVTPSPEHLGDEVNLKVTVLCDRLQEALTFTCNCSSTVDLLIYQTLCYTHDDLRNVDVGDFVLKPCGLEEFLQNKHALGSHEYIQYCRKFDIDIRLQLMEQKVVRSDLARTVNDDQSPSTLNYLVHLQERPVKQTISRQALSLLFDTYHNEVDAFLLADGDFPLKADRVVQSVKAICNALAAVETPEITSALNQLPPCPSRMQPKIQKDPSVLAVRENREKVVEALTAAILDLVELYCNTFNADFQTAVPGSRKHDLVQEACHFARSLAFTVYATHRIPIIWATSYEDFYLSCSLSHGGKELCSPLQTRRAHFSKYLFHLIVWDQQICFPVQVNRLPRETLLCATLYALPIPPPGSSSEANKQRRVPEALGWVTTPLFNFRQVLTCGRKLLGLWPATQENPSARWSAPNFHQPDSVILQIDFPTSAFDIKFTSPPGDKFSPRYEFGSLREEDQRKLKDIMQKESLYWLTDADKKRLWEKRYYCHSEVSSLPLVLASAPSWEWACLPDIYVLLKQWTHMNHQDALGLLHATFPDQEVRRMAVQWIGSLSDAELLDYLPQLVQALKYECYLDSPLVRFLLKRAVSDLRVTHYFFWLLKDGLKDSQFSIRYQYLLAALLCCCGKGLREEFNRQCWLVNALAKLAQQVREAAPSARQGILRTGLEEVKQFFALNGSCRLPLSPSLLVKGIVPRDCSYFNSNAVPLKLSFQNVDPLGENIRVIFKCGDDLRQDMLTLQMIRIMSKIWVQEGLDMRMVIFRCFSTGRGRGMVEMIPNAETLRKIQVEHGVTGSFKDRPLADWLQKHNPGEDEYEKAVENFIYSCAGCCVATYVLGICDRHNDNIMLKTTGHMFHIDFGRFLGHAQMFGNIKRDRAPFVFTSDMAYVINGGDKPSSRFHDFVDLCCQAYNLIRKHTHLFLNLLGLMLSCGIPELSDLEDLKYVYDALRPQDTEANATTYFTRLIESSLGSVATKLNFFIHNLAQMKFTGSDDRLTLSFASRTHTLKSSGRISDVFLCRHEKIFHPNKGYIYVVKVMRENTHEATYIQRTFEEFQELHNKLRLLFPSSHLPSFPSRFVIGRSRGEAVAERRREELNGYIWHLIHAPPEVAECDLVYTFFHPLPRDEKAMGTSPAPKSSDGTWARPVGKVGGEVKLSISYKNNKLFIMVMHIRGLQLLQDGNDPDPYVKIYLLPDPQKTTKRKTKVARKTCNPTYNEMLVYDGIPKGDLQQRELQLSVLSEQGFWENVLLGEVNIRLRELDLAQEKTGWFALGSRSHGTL
Sequence of Maternal embryonic leucine zipper kinase (Homo sapiens) (Q14680 whole entry, looked up): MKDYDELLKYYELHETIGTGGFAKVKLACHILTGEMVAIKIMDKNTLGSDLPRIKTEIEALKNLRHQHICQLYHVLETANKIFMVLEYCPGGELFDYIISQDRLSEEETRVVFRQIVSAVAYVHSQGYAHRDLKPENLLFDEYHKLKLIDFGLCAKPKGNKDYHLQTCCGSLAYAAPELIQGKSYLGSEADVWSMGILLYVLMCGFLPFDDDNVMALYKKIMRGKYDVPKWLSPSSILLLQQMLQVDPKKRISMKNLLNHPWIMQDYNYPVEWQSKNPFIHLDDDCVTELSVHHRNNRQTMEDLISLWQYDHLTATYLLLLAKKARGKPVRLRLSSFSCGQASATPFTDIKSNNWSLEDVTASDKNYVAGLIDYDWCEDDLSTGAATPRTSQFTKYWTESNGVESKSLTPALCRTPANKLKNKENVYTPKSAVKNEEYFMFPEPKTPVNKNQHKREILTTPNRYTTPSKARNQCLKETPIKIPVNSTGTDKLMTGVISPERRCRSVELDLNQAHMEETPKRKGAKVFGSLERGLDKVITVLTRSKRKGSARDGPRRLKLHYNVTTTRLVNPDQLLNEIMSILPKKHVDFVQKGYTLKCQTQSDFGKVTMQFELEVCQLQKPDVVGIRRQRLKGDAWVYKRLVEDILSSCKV
Sequence of Phosphatidylinositol 4-kinase beta (Homo sapiens) (Q9UBF8 2-816 limits assumed): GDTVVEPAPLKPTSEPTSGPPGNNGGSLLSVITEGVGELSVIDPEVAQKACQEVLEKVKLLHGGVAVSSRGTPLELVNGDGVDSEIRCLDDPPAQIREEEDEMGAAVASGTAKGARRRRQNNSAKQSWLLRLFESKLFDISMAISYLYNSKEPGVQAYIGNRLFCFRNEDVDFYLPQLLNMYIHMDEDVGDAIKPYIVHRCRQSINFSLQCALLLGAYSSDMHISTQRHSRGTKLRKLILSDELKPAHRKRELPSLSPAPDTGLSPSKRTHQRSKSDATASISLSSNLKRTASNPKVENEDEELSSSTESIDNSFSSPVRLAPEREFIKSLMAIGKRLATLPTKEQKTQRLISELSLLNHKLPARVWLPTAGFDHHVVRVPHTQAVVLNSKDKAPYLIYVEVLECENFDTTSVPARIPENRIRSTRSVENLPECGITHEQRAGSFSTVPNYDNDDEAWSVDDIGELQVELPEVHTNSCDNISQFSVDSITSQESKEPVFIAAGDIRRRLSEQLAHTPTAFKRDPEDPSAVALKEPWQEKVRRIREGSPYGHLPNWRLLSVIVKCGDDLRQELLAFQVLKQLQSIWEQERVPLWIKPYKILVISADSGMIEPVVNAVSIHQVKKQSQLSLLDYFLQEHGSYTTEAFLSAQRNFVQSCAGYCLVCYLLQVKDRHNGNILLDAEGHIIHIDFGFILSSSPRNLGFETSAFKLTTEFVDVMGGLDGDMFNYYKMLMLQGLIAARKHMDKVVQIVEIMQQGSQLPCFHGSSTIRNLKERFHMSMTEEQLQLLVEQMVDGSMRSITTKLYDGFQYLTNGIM

Structure (SMILES): Cn1c(CN2CCC(C(C)(C)O)CC2)nc2c(N3CCOCC3)nc(-n3c(C4CC4)nc4ccccc43)nc21
- Activity [4]: Toxic
- Activity [5]: Non-toxic

Structure (SMILES): CCc1nc2ccccc2n1-c1nc(N2CCOCC2)c2nc(CN3CCC(C(C)(C)O)CC3)n(C)c2n1
- Activity [4]: Toxic
- Activity [5]: Toxic

Structure (SMILES): Cn1c(CN2CCC(C(C)(C)O)CC2)nc2c(N3CCOCC3)nc(-c3cccc4[nH]ncc34)nc21
- Ki [3]: 2.3 nM

Structure (SMILES): CCc1nc2ccccc2n1-c1nc(N2CCOCC2)c2sc(CN3CCC(C(C)(C)O)CC3)cc2n1
- Activity [4]: Non-toxic
- Activity [5]: Non-toxic

Structure (SMILES): CCc1nc2ccccc2n1-c1nc(N2CCOCC2)c2nc(NC3CN(C4CCS(=O)(=O)CC4)C3)n(C)c2n1
- IC50 [2]: 80.2 nM
- Ki [3]: 0.9 nM

Structure (SMILES): CC(C)c1nc2ccccc2n1-c1nc(N2CCOCC2)c2nc(OC3CN(C4CCS(=O)(=O)CC4)C3)n(C)c2n1
- Activity [11]: 2%
- AUC [12]: 128 µM·h
- AUC [13]: 7.23 µM·h
- AUC [14]: 21.1 µM·h
- Cmax [15]: 1740 nM
- Cmax [16]: 8810 nM
- bioavailability [17]: 100%
- Cmax [18]: 1180 nM
- bioavailability [19]: 96.2%
- bioavailability [20]: 82.6%
- half-life [21]: 2.59 h
- half-life [22]: 11.6 h
- Vd [23]: 2.2 L/kg
- Vd [24]: 3.6 L/kg
- clearance [1]: 19.4 mL/min/kg
- clearance [25]: 2.3 mL/min/kg
- fraction unbound [26]: 0.2
- fraction unbound [27]: 0.183
- inhibition [28]: 71%
- inhibition [29]: 61%
- IC50 [2]: 4.38 nM
- Ki [3]: 0.47 nM
- Activity [30]: 6.8%

Structure (SMILES): Cc1nc2ccccc2n1-c1nc(N2CCOCC2)c2nc(CN3CCC(C(C)(C)O)CC3)n(C)c2n1
- Activity [4]: Toxic
- Activity [5]: Toxic

Structure (SMILES): CC(C)(O)C1CCN(Cc2cc3nc(-c4cccc5[nH]ncc45)nc(N4CCOCC4)c3s2)CC1
- Activity [4]: Non-toxic
- Ki [3]: 1.1 nM
- Activity [5]: Non-toxic

Structure (SMILES): CNc1nc2ccccc2n1-c1nc(N2CCOCC2)c2nc(CN3CCC(C(C)(C)O)CC3)n(C)c2n1
- Activity [5]: Toxic

Structure (SMILES): CCc1nc2ccccc2n1-c1nc(N2CCOCC2)c2nc(N(C)C3CN(C4CCS(=O)(=O)CC4)C3)n(C)c2n1
- IC50 [2]: 1.79 nM
- Ki [3]: 0.59 nM

Structure (SMILES): CCc1nc2ccccc2n1-c1nc(N2CCOCC2)c2sc(C(=O)N3CCN(C(C)(C)C(N)=O)CC3)c(C)c2n1
- Ki [10]: 157 nM
- Ki [3]: 12.7 nM

Continued, in another order:

- clearance [1]: 63 mL/min/kg
- IC50 [2]: 4.02 nM
- Ki [3]: 0.23 nM
Structure (SMILES): CCc1nc2ccccc2n1-c1nc(N2CCOCC2)c2nc(CC3CN(C4CCS(=O)(=O)CC4)C3)n(C)c2n1

- inhibition [6]: 72%
- inhibition [7]: 63%
- inhibition [8]: 53%
- solubility kinetic [9]: 32 µM (≈ 17 µg/mL)
Structure (SMILES): CC(C)c1nc2ccccc2n1-c1nc(N2CCOCC2)c2nc(CN3CCC(C(C)(C)O)CC3)n(C)c2n1
- Activity [4]: Toxic
- Activity [5]: Non-toxic

- Ki [10]: 236 nM
- Ki [3]: 0.8 nM
Structure (SMILES): CCc1nc2ccccc2n1-c1nc(N2CCOCC2)c2nc(C(=O)N3CCN(C(C)(C)C(N)=O)CC3)n(C)c2n1

- IC50 [2]: 9.96 nM
- Ki [3]: 0.36 nM
Structure (SMILES): CCc1nc2ccccc2n1-c1nc(N2CCOCC2)c2nc(CC3CN(C(=O)C(C)C)C3)n(C)c2n1

- Ki [3]: 0.88 nM
Structure (SMILES): CCc1nc2ccccc2n1-c1nc(N2CCOCC2)c2nc(NC3CN(C(=O)C(C)C)C3)n(C)c2n1

- IC50 [2]: 52.8 nM
- Ki [3]: 3.1 nM
Structure (SMILES): CCc1nc2ccccc2n1-c1nc(N2CCOCC2)c2nc(C(=O)N3CCC(C(C)(C)O)CC3)n(C)c2n1
